This test deals with murine neural precursor cells (neurosphere cultures). The test is described as follows: HTS of LOPAC library against secondary neurosphere cultures, MTT proliferation assay at 3 μM, day 7 (z score, P value). The format is cell-based, mouse. For orientation: Tetrazolium dyes change colour on reduction, which living cells bring about.
Where [1] appears, read: LOPAC primary screen, neurosphere MTT proliferation, 3 μM, day 7.
Where [2] appears, read: yes = significantly inhibited neurosphere proliferation (P<0.01) in the primary screen.
Setting [3] is: LOPAC library screen, 3 μM, MTT, neurosphere cultures.
Where [4] appears, read: yes/no: significantly inhibited neurosphere proliferation (P<0.01) in primary screen.
Setting [5] is: LOPAC library screen, 3 μM, MTT, secondary neurosphere cultures, day 7.
The mark [6] stands for this setting: yes/no: significantly inhibited neurosphere proliferation (P<0.01) in the primary screen.
Where [7] appears, read: LOPAC screen, neurosphere MTT proliferation, 3 μM, day 7.
The mark [8] stands for this setting: yes/no: significantly inhibited neurosphere proliferation in primary screen.
[9] abbreviates: LOPAC library screen at 3 μM, MTT, secondary neurosphere cultures, screened in singlets.
[10] abbreviates: primary LOPAC screen, 3 μM, MTT, neurosphere proliferation.
[11] abbreviates: LOPAC library screen at 3 μM, secondary neurosphere cultures, MTT.

Where a name gives a salt, the structure may show the parent alone. Read-outs that look alike come from different tables or passages of the source.

Under setting [1], `NC(=O)c1ncn([C@@H]2O[C@H](CO)[C@@H](O)[C@H]2O)c1O` [Mizorbine] gave a Z score of 1.642. In addition, the Activity entry under setting [2] is given as “no”.
Take `CN1CCC(=C2c3ccccc3CC(=O)c3sccc32)CC1` [Ketotifen fumarate]: the “Z Score” value under setting [3] was 0.9573. The molecule also returned a Z score under setting [1] of 0.957. The Activity entry under setting [4] was “no”.
For `COc1ccccc1N1CCN(CCN(C(=O)c2ccc(I)cc2)c2ccccn2)CC1.Cl` [p-MPPI hydrochloride], the “Z Score” value is listed as 0.2606. Besides, the Z score under setting [1] was 0.261. Besides, under setting [2], the Activity entry is reported as “no”.
For the molecule `CN1C(C)(C)CCCC1(C)C` [Pempidine tartrate], the “Z Score” value under setting [5] is −1.719. Under setting [1], this molecule had a Z score of −1.719. In addition, the Activity result under setting [2] is “no”.
Take `COc1ccc2c3c1O[C@H]1C(=O)CC[C@@]4(O)[C@@H](C2)N(CC2CC2)CC[C@]314.Cl` [(−)-3-Methoxynaltrexone hydrochloride]: the “Z Score” value is on record as 0.5963. The Z score under setting [1] was 0.596. Under setting [6], the Activity result is given as “no”.
As to `Cc1ncc(CNC(=O)N(CCCl)N=O)c(N)n1` [Nimustine hydrochloride], the “Z Score” value was −0.6524.
With `C/C(O)=C(\C#N)C(=O)Nc1cc(Br)ccc1Br` [LFM-A13], the “Z Score” value was 4.5. Also, under setting [1], the Z score is given as 4.500. Besides, the Activity entry under setting [4] was “no”.
Consider `Cl.Oc1cc2c(cc1O)C(c1ccccc1)CNCC2` (racemic) [(±)-SKF-38393 hydrochloride], for which the Activity entry was “no”. This molecule yielded a Z score under setting [7] of 1.280.
`C=CC1=C(C)c2cc3[nH]c(cc4nc(cc5[nH]c(cc1n2)c(C)c5CCC(=O)O)C(CCC(=O)O)=C4C)c(C)c3C=C` [Protoporphyrin IX disodium]: under “168 h, 3 µM”, the “Z Score” value is listed as −3.441 and the Z score is on record as −3.441. Also, the Activity entry under setting [2] is listed as “yes”.
With `CN1CCc2ccccc2Cc2[nH]c3ccccc3c2CC1` [LE 300], the Activity entry was “no”, the “Z Score” value is on record as −1.07 and the Z score is recorded as −1.070.
Consider `CC(C)C[C@H](NP(=O)(O)O[C@@H]1O[C@@H](C)[C@H](O)[C@@H](O)[C@H]1O)C(=O)N[C@@H](Cc1c[nH]c2ccccc12)C(=O)O` [Phosphoramidon disodium], for which, under “168 h, 3 µM”, the “Z Score” value is recorded as −0.5097 and the Z score is −0.510. The Activity entry under setting [8] was “no”.
R(−)-Apocodeine hydrochloride: the “Z Score” value is −9.865. In addition, the Z score under setting [1] is recorded as −9.865. The Activity entry under setting [6] is on record as “yes”.
On to `COC(=O)C1=C(C)NC(C)=C([N+](=O)[O-])C1c1ccccc1C(F)(F)F` (stereo not drawn) [(B1)-Bay K 8644], for which the “Z Score” value was 0.8527.
In the case of `CN1[C@@H]2CC[C@H]1C[C@@H](OC(c1ccccc1)c1ccccc1N)C2` (stereo partly drawn) [Aminobenztropine], under setting [5], the “Z Score” value was −1.455. The Z score under setting [1] is −1.455. In addition, under setting [6], the Activity result is “no”.
With `CN/C(=N/CCSCc1nc[nH]c1C)NC#N` [Cimetidine], the “Z Score” value under setting [9] turned out to be 1.665. Besides, under setting [7], the Z score was 1.665. The Activity result under setting [4] is on record as “no”.
For the molecule `CC(C)(C)c1ccc(C(O)CCCN2CCC(C(O)(c3ccccc3)c3ccccc3)CC2)cc1` (stereo not drawn) [Terfenadine], the Activity result was “no”. The “Z Score” value under setting [3] is 0.7553. For the same molecule, the Z score under setting [10] came out at 0.755.
As for `N[C@@H](Cc1c[nH]c2ccccc12)C(=O)O` [L-Tryptophan], the Activity result is “no”, the “Z Score” value was 0.2241 and the Z score is 0.224.
Consider `Nc1nc2[nH]c(=O)cnc2c(=O)[nH]1` [Isoxanthopterin], for which the “Z Score” value is on record as 0.2339. The molecule also showed a Z score under setting [1] of 0.234. The Activity entry under setting [4] is reported as “no”.
As for `NNCCc1ccccc1` [Phenelzine sulfate], the “Z Score” value under setting [5] is recorded as −1.536. Further, under setting [1], the Z score is listed as −1.536. Further, the Activity entry under setting [8] is given as “no”.
As for `CNCC(O)c1ccc(O)cc1` (racemic) [(±)-Synephrine], the Z score under setting [1] is −0.149. In addition, the Activity result under setting [8] is recorded as “no”.
For the molecule `NC(N)=Nc1ccc2[nH]c3c(c2c1)C[C@@]1(O)[C@H]2Cc4ccc(O)c5c4[C@@]1(CCN2CC1CC1)[C@H]3O5.O=C(O)C(F)(F)F.O=C(O)C(F)(F)F`, the “Z Score” value is given as −0.2037. The same molecule returned a Z score under setting [1] of −0.204. Also, the Activity result under setting [4] is recorded as “no”.
In the case of `NS(=O)(=O)c1cc(C(=O)O)c(NCc2ccco2)cc1Cl` [Furosemide], the Activity result is recorded as “no”. Moreover, under setting [9], the “Z Score” value stood at 1.889. The molecule further displayed a Z score under setting [1] of 1.889.
On to `CCCCc1ccc(C(=O)O)nc1` [Fusaric acid], for which the “Z Score” value is listed as −0.1413. This molecule also had a Z score under setting [1] of −0.141.
For `CCCn1c(C)c(C(=O)c2cccc3ccccc23)c2ccccc21` [JWH-015], the “Z Score” value is given as 0.6223. Under setting [1], the Z score was determined as 0.622. The Activity result under setting [4] is “no”.
Turning to `CC(C)(C=O)Cc1cc(C(C)(C)C)c(O)c(C(C)(C)C)c1` [CGP-13501], the “Z Score” value is −1.096. Besides, the Z score under setting [10] is reported as −1.096. Besides, the Activity result (yes/no: significantly inhibited neurosphere proliferation in the primary screen) was “no”.
On to `CC(N)Cc1c[nH]c2ccc(O)cc12.O=C(O)/C=C\C(=O)O` (stereo not drawn) [alpha-Methyl-5-hydroxytryptamine maleate], for which the “Z Score” value is recorded as −0.7796. Besides, under setting [1], the Z score is given as −0.780. The Activity result under setting [2] was “no”.
For the molecule `Cl.Nc1c2c(nc3ccccc13)CCCC2` [9-Amino-1,2,3,4-tetrahydroacridine hydrochloride], the Activity entry is “no”, the “Z Score” value is −1.021 and the Z score is given as −1.021.
With `O=C(O)CNC(=O)C(CS)Cc1ccccc1` (racemic) [DL-Thiorphan], the “Z Score” value under setting [11] is given as −0.3116. This molecule registered a Z score under setting [1] of −0.312. Besides, the Activity result under setting [8] is reported as “no”.
As for `CN(C)CCC(c1ccc(Br)cc1)c1ccccn1.O=C(O)/C=C\C(=O)O` (stereo not drawn) [(B1)-Brompheniramine maleate], the “Z Score” value is listed as −3.53.
Take `Cl.Cl.c1ccc(CCCN2CCN(CCOC(c3ccccc3)c3ccccc3)CC2)cc1` [GBR-12935 dihydrochloride]: the “Z Score” value is −11.27. Under setting [1], this molecule returned a Z score of −11.274. The Activity result under setting [6] is recorded as “yes”.
On to `COC(=O)C1=CCCN(C)C1` [Arecoline hydrobromide], for which the Activity entry is recorded as “no”, the “Z Score” value is listed as −0.111 and the Z score is −0.111.
Take `C=CCN1CC[C@]23CCCC[C@H]2[C@H]1Cc1ccc(O)cc13` [Levallorphan tartrate]: the “Z Score” value under setting [11] is −0.3465. The molecule also showed a Z score under setting [1] of −0.346. Besides, the Activity entry under setting [2] is “no”.
Turning to `N[C@@H]1C[C@H]1c1ccccc1` [Tranylcypromine hydrochloride], under setting [5], the “Z Score” value is −1.441. Also, the Z score under setting [1] was −1.441. Under setting [8], the Activity result is on record as “no”.
For the molecule NCS-356, the “Z Score” value is reported as 2.833. Moreover, the Z score under setting [1] came to 2.833. Under setting [2], the Activity result is “no”.
As to `Cl.OCc1c[nH]cn1` [4-Imidazolemethanol hydrochloride], the “Z Score” value is on record as −2.077. The Z score under setting [1] is given as −2.077. Also, the Activity result under setting [4] was “no”.
Under setting [7], `CN(C)C(=N)NCCC[C@H](N)C(=O)O.Cl` [N′,N′-Dimethylarginine hydrochloride] yielded a Z score of −1.373. Further, the Activity entry under setting [4] is listed as “no”.
As to `CN1C[C@@H](NS(=O)(=O)N(C)C)C[C@@H]2c3cccc4c3c(cn4C)C[C@H]21` [Mesulergine hydrochloride], the “Z Score” value under setting [5] was −2.16. The molecule further gave a Z score under setting [1] of −2.160. Besides, under setting [6], the Activity result was “no”.
As for `CC(=O)SCC[N+](C)(C)C.[Cl-]` [Acetyithiocholine chloride], the “Z Score” value amounted to 0.004223.
On to `COCCc1ccc(OCC(O)CNC(C)C)cc1.O=C(O)C(O)C(O)C(=O)O` (stereo not drawn) [(B1)-Metoprolol (+)-tartrate], for which the “Z Score” value is −0.2689.
With `CN(C)CC/C=C1/c2ccccc2Sc2ccc(Cl)cc21` [Chlorprothixene hydrochloride], where the note is “168 h, 3 µM”, the “Z Score” value was −5.008 and the Z score is listed as −5.008. Besides, under setting [6], the Activity result was “yes”.
Take `Clc1ccc(C(c2ccc(Cl)cc2)n2cc[n+](CC(OCc3ccc(Cl)cc3Cl)c3ccc(Cl)cc3Cl)c2)cc1` (stereo not drawn) [Calmidazolium chloride]: under “168 h, 3 µM”, the “Z Score” value was −8.582 and the Z score is −8.582. Further, the Activity entry under setting [2] is “yes”.
On to `CCCCOC(=O)NS(=O)(=O)c1sc(CC(C)C)cc1-c1ccc(Cn2c(CC)nc3c(C)cc(C)nc32)cc1` [L-162,313], for which the “Z Score” value is given as 0.7923. This molecule gave a Z score under setting [1] of 0.792. Also, the Activity result under setting [4] was “no”.
In the case of `COC1=C(OC)C(=O)c2ccccc2C1=O` [2,3-Dimethoxy-1,4-naphthoquinone], the “Z Score” value is −10.4. The same molecule gave a Z score under setting [1] of −10.398. Under setting [6], the Activity entry is “yes”.
With `NCC1(CC(=O)O)CCCCC1` [Gabapentin], the “Z Score” value is given as 0.8838. The molecule also returned a Z score under setting [1] of 0.884. For the same molecule, the Activity result under setting [4] was “no”.
Turning to `CC(C)N(CCC(C(N)=O)(c1ccccc1)c1ccccn1)C(C)C` (stereo not drawn) [Disopyramide phosphate], the “Z Score” value under setting [3] is on record as −0.07187. Also, the Z score under setting [1] is on record as −0.072. In addition, the Activity entry under setting [6] is reported as “no”.
On to `Cl.O=C(O)C1CCCN(CCC=C(c2ccccc2)c2ccccc2)C1` (stereo not drawn) [SKF 89976A hydrochloride], for which the “Z Score” value is −0.2328. This molecule came in with a Z score under setting [1] of −0.233. Under setting [8], the Activity result was “no”.

For the origin of these results see patent US8058243B2, “Method for treating a brain cancer with ifenprodil” (HSC Research and Development Limited Partnership, priority 2006, dated 2011).
